Laboratory results: patent US20230233569A1 (Revolution Medicines, Inc., priority 2020, published 2023)
Where two headings read alike, the source gives them in different places.

Key:
KRAS WT = KRAS WT (Homo sapiens, UniProt P01116+P62937); test: Ras-Raf disruption / FRET / MOA assay (BRAF RBD); format: biochemical; conditions: with Cyclophilin A
Outline: (§1)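 TR-FRET in 25 mM HEPES pH 7.3, 100 mM NaCl, 5 mM MgCl2, 0.1% BSA, 0.002% Tween20 with 25 μM Cyclophilin A, 12.5 nM His6-Ras-GMPPNP, 50 nM GST-BRAF RBD; compound 10-point 3-fold series from 30 μM. After 3 h at 25 °C, Eu anti-His/APC anti-GST added for 1.5 h; IC50 from ratio decrease versus DMSO.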

KRAS G13D = KRAS G13D (Homo sapiens, UniProt P01116+P62937, G13D); test: Ras-Raf disruption / FRET / MOA assay (BRAF RBD); format: biochemical; conditions: with Cyclophilin A
Outline: as §1

KRAS G12V = KRAS G12V (Homo sapiens, UniProt P01116+P62937, G12V); test: Ras-Raf disruption / FRET / MOA assay (BRAF RBD); format: biochemical; conditions: with Cyclophilin A
Outline: as §1

NRAS G12C = NRAS G12C (Homo sapiens, UniProt P01111+P62937, G12C); test: Ras-Raf disruption / FRET / MOA assay (BRAF RBD); format: biochemical
Outline: as §1

KRAS G13C = KRAS G13C (Homo sapiens, UniProt P01116+P62937, G13C); test: Ras-Raf disruption / FRET / MOA assay (BRAF RBD); format: biochemical; conditions: with Cyclophilin A
Outline: as §1

KRAS G12S = KRAS G12S (Homo sapiens, UniProt P01116+P62937, G12S); test: Ras-Raf disruption / FRET / MOA assay (BRAF RBD); format: biochemical; conditions: with Cyclophilin A
Outline: as §1

KRAS G12D = KRAS G12D (Homo sapiens, UniProt P01116+P62937, G12D); test: Ras-Raf disruption / FRET / MOA assay (BRAF RBD); format: biochemical; conditions: with Cyclophilin A
Outline: as §1

NCI-H358 (K-Ras G12C) = test: CellTiter-Glo cell viability assay; format: cell-based; conditions: Homo sapiens, NCI-H358, 120 h
Outline: (§2)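 Viability is scored by CellTiter-Glo luminescence on day 5 of compound treatment, relative to vehicle (DMSO) wells set as 100%, with a four-parameter logistic fit.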

AsPC-1 (K-Ras G12D) [1] = test: CellTiter-Glo cell viability assay; format: cell-based; conditions: Homo sapiens, ASPC1, 120 h
Outline: as §2

KRAS G12C = KRAS G12C (Homo sapiens, UniProt P01116+P62937, G12C); test: Ras-Raf disruption / FRET / MOA assay (BRAF RBD); format: biochemical; conditions: with Cyclophilin A
Outline: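 His6-K-Ras G12C-GMPPNP (12.5 nM), GST-BRAF RBD (50 nM) and tagless Cyclophilin A (25 μM) incubated 3 h at 25 °C with compound (10-point 3-fold series from 30 μM), pH 7.3 HEPES buffer. Anti-His Eu/anti-GST APC added for 1.5 h; decreased TR-FRET ratio vs DMSO gives IC50.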

AsPC-1 (K-Ras G12D) [2] = test: Potency assay: pERK; format: cell-based; conditions: Homo sapiens
NRAS Q61R = NRAS Q61R (Homo sapiens, UniProt P01111+P62937, Q61R); test: Ras-Raf disruption / FRET / MOA assay (BRAF RBD); format: biochemical; conditions: NRAS Q61R; read-out: NRAS Q61R FRET data IC50
Outline: as §1

NRAS WT = NRAS WT (Homo sapiens, UniProt P01111+P62937); test: Ras-Raf disruption / FRET / MOA assay (BRAF RBD); format: biochemical; conditions: NRAS WT; read-out: NRAS WT FRET data IC50
Outline: as §1

NRAS Q61K = NRAS Q61K (Homo sapiens, UniProt P01111+P62937, Q61K); test: Ras-Raf disruption / FRET / MOA assay (BRAF RBD); format: biochemical; conditions: NRAS Q61K; read-out: NRAS Q61K FRET data IC50
Outline: as §1

KRAS Q61H = KRAS Q61H (Homo sapiens, UniProt P01116+P62937, Q61H); test: Ras-Raf disruption / FRET / MOA assay (BRAF RBD); format: biochemical; conditions: KRAS Q61H; read-out: KRAS Q61H FRET data IC50
Outline: as §1

[3] = KRAS WT FRET data IC50, Ras-Raf disruption
[4] = KRAS G13D FRET data IC50, Ras-Raf disruption
[5] = KRAS G12V FRET data IC50, Ras-Raf disruption
[6] = NRAS G12C FRET data IC50, NRAS G12C
[7] = KRAS G13C FRET data IC50, Ras-Raf disruption
[8] = KRAS G12S FRET data IC50, Ras-Raf disruption
[9] = KRAS G12D FRET data IC50, Ras-Raf disruption
[10] = read-out: H358 Cell Viability assay data IC50, K-Ras G12C, 5-day treatment
[11] = read-out: AsPC-1 Cell Viability assay data IC50, K-Ras G12D, 5-day treatment
[12] = KRAS G12C FRET data IC50, Ras-Raf disruption
[13] = K-Ras G12C, 5-day treatment, read-out: H358 Cell Viability assay data IC50
[14] = K-Ras G12D, 5-day treatment, read-out: AsPC-1 Cell Viability assay data IC50

Chain of NRAS G12C (P01111 whole entry G12C): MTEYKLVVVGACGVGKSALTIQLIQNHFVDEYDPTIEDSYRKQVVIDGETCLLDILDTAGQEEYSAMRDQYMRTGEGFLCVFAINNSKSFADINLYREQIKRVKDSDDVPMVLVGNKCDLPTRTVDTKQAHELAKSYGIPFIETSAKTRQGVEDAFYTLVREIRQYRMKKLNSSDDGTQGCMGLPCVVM
Chain of NRAS G12C (P62937 whole entry): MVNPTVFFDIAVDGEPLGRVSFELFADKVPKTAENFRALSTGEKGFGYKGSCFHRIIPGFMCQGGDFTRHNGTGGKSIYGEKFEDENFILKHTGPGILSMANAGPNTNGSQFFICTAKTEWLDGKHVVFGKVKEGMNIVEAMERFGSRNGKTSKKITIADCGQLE
Chain of KRAS G13C (P01116 1-169 isoform P01116-2 G13C limits assumed): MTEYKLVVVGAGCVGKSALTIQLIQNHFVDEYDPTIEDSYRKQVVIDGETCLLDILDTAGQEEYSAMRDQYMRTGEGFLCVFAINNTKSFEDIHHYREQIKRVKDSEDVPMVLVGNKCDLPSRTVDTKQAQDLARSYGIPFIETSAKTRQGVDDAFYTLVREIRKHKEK
Chain of KRAS G13C (P62937 whole entry): as the sequence (P62937 whole entry) above
Chain of KRAS G12D (P01116 1-169 isoform P01116-2 G12D limits assumed): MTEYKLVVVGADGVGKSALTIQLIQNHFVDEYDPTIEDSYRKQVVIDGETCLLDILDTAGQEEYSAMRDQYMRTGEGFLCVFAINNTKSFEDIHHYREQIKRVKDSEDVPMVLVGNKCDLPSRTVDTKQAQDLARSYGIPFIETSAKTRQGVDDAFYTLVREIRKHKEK
Chain of KRAS G12D (P62937 whole entry): as the sequence (P62937 whole entry) above
Chain of KRAS G12S (P01116 1-169 isoform P01116-2 G12S limits assumed): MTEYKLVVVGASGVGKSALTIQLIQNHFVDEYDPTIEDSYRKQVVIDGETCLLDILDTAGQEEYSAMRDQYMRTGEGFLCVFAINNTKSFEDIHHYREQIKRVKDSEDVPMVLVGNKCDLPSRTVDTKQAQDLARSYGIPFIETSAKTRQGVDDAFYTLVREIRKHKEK
Chain of KRAS G12S (P62937 whole entry): as the sequence (P62937 whole entry) above
Chain of KRAS G13D (P01116 1-169 isoform P01116-2 G13D limits assumed): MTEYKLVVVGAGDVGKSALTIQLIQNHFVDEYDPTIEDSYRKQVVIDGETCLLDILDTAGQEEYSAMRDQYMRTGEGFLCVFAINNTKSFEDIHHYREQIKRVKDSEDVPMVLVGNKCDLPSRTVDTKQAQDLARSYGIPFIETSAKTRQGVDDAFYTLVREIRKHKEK
Chain of KRAS G13D (P62937 whole entry): as the sequence (P62937 whole entry) above
Chain of KRAS G12V (P01116 1-169 isoform P01116-2 G12V limits assumed): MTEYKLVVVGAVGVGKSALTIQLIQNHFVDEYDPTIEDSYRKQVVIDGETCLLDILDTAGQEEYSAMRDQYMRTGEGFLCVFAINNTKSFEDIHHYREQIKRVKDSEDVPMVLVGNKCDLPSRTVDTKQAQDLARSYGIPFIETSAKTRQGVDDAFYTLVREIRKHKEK
Chain of KRAS G12V (P62937 whole entry): as the sequence (P62937 whole entry) above
Chain of KRAS WT (P01116 1-169 isoform P01116-2 limits assumed): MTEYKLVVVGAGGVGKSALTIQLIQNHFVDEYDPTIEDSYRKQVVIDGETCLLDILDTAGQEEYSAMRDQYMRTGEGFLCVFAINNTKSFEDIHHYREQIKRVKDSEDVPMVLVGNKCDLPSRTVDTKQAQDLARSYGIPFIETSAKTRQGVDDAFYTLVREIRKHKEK
Chain of KRAS WT (P62937 whole entry): as the sequence (P62937 whole entry) above
Chain of KRAS G12C (P01116 1-169 isoform P01116-2 G12C limits assumed): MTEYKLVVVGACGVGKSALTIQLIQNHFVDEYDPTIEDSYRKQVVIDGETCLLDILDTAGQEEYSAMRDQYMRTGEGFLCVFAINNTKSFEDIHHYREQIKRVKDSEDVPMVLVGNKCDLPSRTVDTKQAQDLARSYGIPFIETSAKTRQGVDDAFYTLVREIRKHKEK
Chain of KRAS G12C (P62937 whole entry): as the sequence (P62937 whole entry) above
Chain of NRAS Q61R (P01111 whole entry Q61R): as the sequence (P01111 whole entry G12C) above, with C12G, Q61R counted along it
Chain of NRAS Q61R (P62937 whole entry): as the sequence (P62937 whole entry) above
Chain of NRAS Q61K (P01111 whole entry Q61K): as the sequence (P01111 whole entry G12C) above, with C12G, Q61K counted along it
Chain of NRAS Q61K (P62937 whole entry): as the sequence (P62937 whole entry) above
Chain of KRAS Q61H (P01116 1-169 isoform P01116-2 Q61H limits assumed): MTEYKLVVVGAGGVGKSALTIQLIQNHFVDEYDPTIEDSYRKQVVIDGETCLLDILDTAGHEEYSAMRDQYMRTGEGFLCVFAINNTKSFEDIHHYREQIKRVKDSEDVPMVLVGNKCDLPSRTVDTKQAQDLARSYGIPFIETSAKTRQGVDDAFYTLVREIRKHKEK
Chain of KRAS Q61H (P62937 whole entry): as the sequence (P62937 whole entry) above
Chain of NRAS WT (P01111 whole entry): as the sequence (P01111 whole entry G12C) above, with C12G counted along it
Chain of NRAS WT (P62937 whole entry): as the sequence (P62937 whole entry) above

`CCn1c(-c2cccnc2[C@H](C)OC)c2c3cc(ccc31)-c1cc(O)cc(c1)C[C@H](NC(=O)[C@H](C(C)C)N(C)C(=O)CN(C)C(=O)[C@H]1CN1CCOC)C(=O)N1CCC[C@H](N1)C(=O)OCC(C)(C)C2` (stereo partly shown) [Example 159] was tested, and the IC50 (KRAS WT; [3]) was 10 to 100 nM, the IC50 (KRAS G13D; [4]) was 100 to 1000 nM and the IC50 (KRAS G12V; [5]) was 10 to 100 nM. For the same compound, the IC50 (NRAS G12C; [6]) was < 10 nM, the IC50 (KRAS G13C; [7]) was 10 to 100 nM and the IC50 (KRAS G12S; [8]) was 10 to 100 nM. For the same compound, the IC50 (KRAS G12D; [9]) was 100 to 1000 nM, the IC50 (NCI-H358 (K-Ras G12C); [10]) was < 10 nM and the IC50 (AsPC-1 (K-Ras G12D) [1]; [11]) was 100 to 1000 nM. The IC50 (KRAS G12C; [12]) was 10 to 100 nM.

With `CCn1c(-c2cnccc2COC)c2c3cc(ccc31)-c1cc(O)cc(c1)C[C@H](NC(=O)[C@H](C(C)C)N(C)C(=O)CN(C)C(=O)[C@H]1CN1Cc1ccccc1)C(=O)N1CCC[C@H](N1)C(=O)OCC(C)(C)C2` (stereo partly shown) [Example 9] the EC50 (AsPC-1 (K-Ras G12D) [2]; ASPC1, read-out: pERK EC50) was < 5 µM, the IC50 (NCI-H358 (K-Ras G12C); [10]) was 10 to 100 nM and the IC50 (AsPC-1 (K-Ras G12D) [1]; [11]) was 1000 to 10000 nM.

With `CCn1c(-c2cnccc2COC)c2c3cc(ccc31)-c1cc(O)cc(c1)C[C@H](NC(=O)[C@H](C(C)C)N(C)C(=O)CN(C)C(=O)[C@H]1CN1)C(=O)N1CCC[C@H](N1)C(=O)OCC(C)(C)C2` [Example 7] the EC50 (AsPC-1 (K-Ras G12D) [2]; ASPC1, read-out: pERK EC50) was < 5 µM, the IC50 (NCI-H358 (K-Ras G12C); [10]) was 10 to 100 nM and the IC50 (AsPC-1 (K-Ras G12D) [1]; [11]) was 100 to 1000 nM.

For `CCn1c(-c2cccnc2[C@H](C)OC)c2c3cc(ccc31)-c1cc(O)cc(c1)C[C@H](NC(=O)[C@H](C(C)C)N(C)C(=O)[C@@H]1CO[C@H](C)CN1C(=O)[C@@H]1CN1)C(=O)N1CCC[C@H](N1)C(=O)OCC(C)(C)C2` [Example 249], the EC50 (AsPC-1 (K-Ras G12D) [2]; ASPC1, AsPC-1 KRAS G12D, read-out: pERK EC50) was < 5 µM, the IC50 (NCI-H358 (K-Ras G12C); [13]) was 10 to 100 nM and the IC50 (AsPC-1 (K-Ras G12D) [1]; [14]) was 10 to 100 nM.

`CCn1c(-c2cccnc2[C@H](C)OC)c2c3cc(ccc31)-c1cc(cc(C(F)F)c1)C[C@H](NC(=O)[C@H](C1CCCC1)N1CC[C@]3(CCN(C(=O)[C@@H]4N[C@@H]4C4CC4)C3)C1)C(=O)N1CCC[C@H](N1)C(=O)OCC(C)(C)C2` [Example 318] gave an IC50 (NRAS Q61R) of 1 to 10 µM, an IC50 (KRAS WT; Ras-Raf disruption, read-out: KRAS WT FRET data IC50) of 100 to 1000 nM and an IC50 (NRAS WT) of 1 to 10 µM. For the same compound, the IC50 (NRAS Q61K) was 1 to 10 µM, the IC50 (KRAS G13D; Ras-Raf disruption, read-out: KRAS G13D FRET data IC50) was 1000 to 10000 nM and the IC50 (KRAS G12V; Ras-Raf disruption, read-out: KRAS G12V FRET data IC50) was 1000 to 10000 nM. For the same compound, the IC50 (NRAS G12C; NRAS G12C, read-out: NRAS G12C FRET data IC50) was 1000 to 10000 nM, the IC50 (KRAS Q61H) was 100 to 1000 nM and the IC50 (KRAS G13C; Ras-Raf disruption, read-out: KRAS G13C FRET data IC50) was 100 to 1000 nM. The IC50 (KRAS G12S; Ras-Raf disruption, read-out: KRAS G12S FRET data IC50) was 1000 to 10000 nM, the IC50 (KRAS G12D; Ras-Raf disruption, read-out: KRAS G12D FRET data IC50) was 1000 to 10000 nM and the IC50 (NCI-H358 (K-Ras G12C); [13]) was 100 to 1000 nM. It also gave an IC50 (AsPC-1 (K-Ras G12D) [1]; [14]) of 100 to 1000 nM and an IC50 (KRAS G12C; Ras-Raf disruption, read-out: KRAS G12C FRET data IC50) of 100 to 1000 nM.

`CCn1c(-c2cccnc2[C@H](C)OC)c2c3cc(ccc31)-c1cc(O)cc(c1)C[C@H](NC(=O)[C@H](C(C)C)N(C)C(=O)CN(C)C(=O)[C@H]1N[C@@H]1C1CC1)C(=O)N1CCC[C@H](N1)C(=O)OCC(C)(C)C2` [Example 136] was tested, and the IC50 (KRAS G12S; [8]) was 10 to 100 nM, the EC50 (AsPC-1 (K-Ras G12D) [2]; ASPC1, read-out: pERK EC50) was < 5 µM and the IC50 (NCI-H358 (K-Ras G12C); [10]) was < 10 nM. For the same compound, the IC50 (KRAS G12C; [12]) was 10 to 100 nM.

`CCn1c(-c2cnccc2COC)c2c3cc(ccc31)-c1cc(O)cc(c1)C[C@H](NC(=O)[C@H](C(C)C)N(C)C(=O)CN(C)C(=O)[C@@H]1N[C@H]1c1ccccc1)C(=O)N1CCC[C@H](N1)C(=O)OCC(C)(C)C2` [Example 11] was tested, and the EC50 (AsPC-1 (K-Ras G12D) [2]; ASPC1, read-out: pERK EC50) was < 5 µM, the IC50 (NCI-H358 (K-Ras G12C); [10]) was 100 to 1000 nM and the IC50 (AsPC-1 (K-Ras G12D) [1]; [11]) was 1000 to 10000 nM.

With `CCn1c(-c2cccnc2[C@H](C)OC)c2c3cc(ccc31)-c1cc(O)cc(c1)C[C@H](NC(=O)[C@H](C(C)C)N(C)C(=O)[C@@]1(C)CCCN1C(=O)[C@@H]1CN1)C(=O)N1CCC[C@H](N1)C(=O)OCC(C)(C)C2` [Example 241] the IC50 (NCI-H358 (K-Ras G12C); [13]) was < 10 nM and the IC50 (AsPC-1 (K-Ras G12D) [1]; [14]) was 100 to 1000 nM.

Compound `CCn1c(-c2cccnc2[C@H](C)OC)c2c3cc(ccc31)-c1cc(O)cc(c1)C[C@H](NC(=O)[C@H](C(C)C)N(C)C(=O)CN(C)C(=O)[C@H]1CN1)C(=O)N1CCC[C@H](N1)C(=O)OCC(C)(C)C2` (single isomer, unassigned) [Example 42A] has an IC50 (KRAS WT; [3]) of 10 to 100 nM, an IC50 (KRAS G13D; [4]) of 10 to 100 nM and an IC50 (KRAS G12V; [5]) of 10 to 100 nM. The IC50 (NRAS G12C; [6]) was < 10 nM, the IC50 (KRAS G13C; [7]) was < 10 nM and the IC50 (KRAS G12S; [8]) was 10 to 100 nM. For the same compound, the IC50 (KRAS G12D; [9]) was 10 to 100 nM, the EC50 (AsPC-1 (K-Ras G12D) [2]; ASPC1, read-out: pERK EC50) was < 5 µM and the IC50 (NCI-H358 (K-Ras G12C); [10]) was < 10 nM. For the same compound, the IC50 (KRAS G12C; [12]) was < 10 nM.
